Measurements reported in ChEMBL document CHEMBL1201862, “PubChem BioAssay data set” (2004).
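Values below derive from 48-hour exposures of cells grown in 96-well plates, with endpoints linearly interpolated between the two concentrations bracketing the appropriate inhibition level. The concentration for 50% growth inhibition is given as GI50.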 Active and inactive are the calls of the source. Rule as the data show it: active = GI50 up to about 1.1 µM and inactive = higher.

What was measured:
Experiment in all cases: growth of human tumour cells (NCI), 48 h
HCC 2998 = system: HCC 2998
UACC-62 = system: UACC-62
COLO 205 = system: COLO 205
T47D = system: T47D
MDA-MB-231 = system: MDA-MB-231
OVCAR-8 = system: OVCAR-8
MOLT-4 = system: MOLT-4
SF-295 = system: SF-295
TK-10 = system: TK-10
KM12 = system: KM12
EKVX = system: EKVX
786-0 = system: 786-0
SF-539 = system: SF-539
MDA-MB-435 = system: MDA-MB-435
OVCAR-5 = system: OVCAR-5
HT-29 = system: HT-29
IGROV-1 = system: IGROV-1
MCF7 = system: MCF7
RXF 393 = system: RXF 393

Measured: GI50

COc1ccc2c(c1)CC1=C(O2)c2ccc(OC)cc2OC1
inactive: HCC 2998 38.5 µM | UACC-62 17.7 µM | COLO 205 18.3 µM | T47D 13.9 µM | MDA-MB-231 39.6 µM | OVCAR-8 29.9 µM | MOLT-4 33.4 µM | SF-295 52.2 µM | TK-10 22.6 µM | KM12 31 µM | EKVX 15.2 µM | 786-0 21.3 µM | SF-539 35.9 µM | MDA-MB-435 17.5 µM | OVCAR-5 49.4 µM | HT-29 20.7 µM | IGROV-1 28.5 µM

N#CC1=CNc2sccc2S1(=O)=O
inactive: HCC 2998 39.8 µM | UACC-62 > 100 µM | COLO 205 > 100 µM | T47D 72.9 µM | MDA-MB-231 > 100 µM | OVCAR-8 > 100 µM | MCF7 > 100 µM | MOLT-4 39.6 µM | SF-295 > 100 µM | TK-10 > 100 µM | KM12 1.68 µM | EKVX > 100 µM | 786-0 > 100 µM | SF-539 > 100 µM | MDA-MB-435 89.7 µM | OVCAR-5 > 100 µM | HT-29 > 100 µM | IGROV-1 > 100 µM

COC1OC(Cn2cc([N+](=O)[O-])nc2C)C(O)C(O)C1O (stereo not given)
inactive: HCC 2998 > 100 µM | UACC-62 > 100 µM | COLO 205 > 100 µM | T47D > 100 µM | MDA-MB-231 > 100 µM | RXF 393 > 100 µM | MCF7 > 100 µM | MOLT-4 > 100 µM | SF-295 > 100 µM | KM12 > 100 µM | EKVX > 100 µM | 786-0 > 100 µM | MDA-MB-435 > 100 µM | OVCAR-5 > 100 µM | HT-29 > 100 µM | IGROV-1 > 100 µM

Cc1nc2sc3ccccc3n2c(=O)c1/N=N/c1ccc(Cl)cc1
inactive: UACC-62 > 100 µM | COLO 205 > 100 µM | T47D > 100 µM | MDA-MB-231 83.9 µM | OVCAR-8 > 100 µM | RXF 393 > 100 µM | MCF7 > 100 µM | MOLT-4 > 100 µM | SF-295 > 100 µM | TK-10 > 100 µM | KM12 > 100 µM | EKVX > 100 µM | 786-0 > 100 µM | SF-539 > 100 µM | MDA-MB-435 > 100 µM | OVCAR-5 > 100 µM | HT-29 > 100 µM | IGROV-1 > 100 µM

CCOC(=O)NCC(=O)NCC(=O)NCC(N)=O
inactive: HCC 2998 > 100 µM | UACC-62 > 100 µM | COLO 205 > 100 µM | T47D > 100 µM | MDA-MB-231 > 100 µM | OVCAR-8 > 100 µM | RXF 393 > 100 µM | MCF7 > 100 µM | MOLT-4 > 100 µM | SF-295 > 100 µM | TK-10 > 100 µM | KM12 > 100 µM | EKVX > 100 µM | 786-0 > 100 µM | MDA-MB-435 > 100 µM | OVCAR-5 > 100 µM | HT-29 > 100 µM | IGROV-1 > 100 µM

O=c1c2ccccc2nc2[nH][nH]c(=S)n12
inactive: UACC-62 > 100 µM | COLO 205 > 100 µM | T47D > 100 µM | MDA-MB-231 > 100 µM | OVCAR-8 > 100 µM | MCF7 > 100 µM | MOLT-4 58.6 µM | SF-295 > 100 µM | TK-10 > 100 µM | KM12 > 100 µM | EKVX 83.6 µM | 786-0 > 100 µM | SF-539 > 100 µM | MDA-MB-435 > 100 µM | OVCAR-5 > 100 µM | HT-29 > 100 µM | IGROV-1 > 100 µM

Nc1ccc(-c2nc3ccccc3s2)cc1C#Cc1ccccc1
inactive: UACC-62 17.9 µM | COLO 205 16.3 µM | T47D 27 µM | MDA-MB-231 19.7 µM | OVCAR-8 19.8 µM | RXF 393 17.3 µM | MCF7 1.59 µM | MOLT-4 32.5 µM | SF-295 21.2 µM | TK-10 13.9 µM | KM12 16.7 µM | EKVX 20.7 µM | 786-0 17.7 µM | SF-539 18.2 µM | MDA-MB-435 19.1 µM | OVCAR-5 27.2 µM | HT-29 19.6 µM | IGROV-1 10.7 µM

N#C/C(C(=O)Nc1ccccc1)=C(/N)N1CCCC1
inactive: HCC 2998 > 100 µM | UACC-62 > 100 µM | COLO 205 > 100 µM | T47D 35.2 µM | MDA-MB-231 > 100 µM | OVCAR-8 > 100 µM | RXF 393 > 100 µM | MOLT-4 > 100 µM | SF-295 > 100 µM | TK-10 > 100 µM | KM12 > 100 µM | EKVX 72.3 µM | 786-0 > 100 µM | SF-539 > 100 µM | MDA-MB-435 > 100 µM | OVCAR-5 > 100 µM | HT-29 88.1 µM | IGROV-1 > 100 µM

CC1CN=C(Nc2ccc(S(N)(=O)=O)cc2)S1 (stereo not given)
inactive: HCC 2998 > 100 µM | COLO 205 > 100 µM | T47D 60.1 µM | MDA-MB-231 > 100 µM | OVCAR-8 > 100 µM | MCF7 78.5 µM | MOLT-4 > 100 µM | SF-295 > 100 µM | TK-10 > 100 µM | KM12 > 100 µM | EKVX > 100 µM | 786-0 > 100 µM | SF-539 > 100 µM | OVCAR-5 > 100 µM | HT-29 > 100 µM | IGROV-1 > 100 µM

CCOC(=S)SCC(=O)O
inactive: UACC-62 > 100 µM | COLO 205 > 100 µM | T47D > 100 µM | MDA-MB-231 > 100 µM | OVCAR-8 > 100 µM | RXF 393 > 100 µM | MCF7 > 100 µM | MOLT-4 > 100 µM | SF-295 > 100 µM | TK-10 > 100 µM | KM12 > 100 µM | EKVX > 100 µM | 786-0 > 100 µM | SF-539 > 100 µM | MDA-MB-435 > 100 µM | OVCAR-5 > 100 µM | HT-29 > 100 µM | IGROV-1 > 100 µM

COC(=O)C1CCC(=O)N1C(c1ccccc1)c1ccc(OC)c(OC)c1 (stereo not given)
inactive: HCC 2998 > 100 µM | UACC-62 > 100 µM | COLO 205 > 100 µM | T47D > 100 µM | MDA-MB-231 > 100 µM | OVCAR-8 > 100 µM | MCF7 > 100 µM | MOLT-4 > 10 µM | SF-295 > 100 µM | TK-10 > 100 µM | KM12 > 100 µM | EKVX > 100 µM | 786-0 > 100 µM | SF-539 > 100 µM | MDA-MB-435 > 100 µM | OVCAR-5 > 100 µM | HT-29 > 100 µM | IGROV-1 > 100 µM

O=C(CC1(O)CCCCC1)OC1CCCC1
inactive: UACC-62 > 100 µM | COLO 205 > 100 µM | T47D > 100 µM | MDA-MB-231 > 100 µM | OVCAR-8 > 100 µM | RXF 393 > 100 µM | MCF7 > 100 µM | SF-295 > 100 µM | TK-10 > 100 µM | KM12 > 100 µM | EKVX > 100 µM | 786-0 > 100 µM | SF-539 > 100 µM | MDA-MB-435 > 100 µM | OVCAR-5 > 100 µM | HT-29 > 100 µM | IGROV-1 > 100 µM

O=C(N/N=C\c1ccc([N+](=O)[O-])cc1)c1ccccc1Nc1ccccc1C(=O)N/N=C/c1ccc([N+](=O)[O-])cc1
inactive: HCC 2998 > 100 µM | UACC-62 > 100 µM | COLO 205 > 100 µM | T47D > 100 µM | MDA-MB-231 25.8 µM | OVCAR-8 > 100 µM | RXF 393 > 100 µM | MCF7 > 100 µM | MOLT-4 66.2 µM | SF-295 > 100 µM | TK-10 > 100 µM | KM12 > 100 µM | EKVX > 100 µM | 786-0 > 100 µM | MDA-MB-435 > 100 µM | OVCAR-5 76.4 µM | HT-29 > 100 µM | IGROV-1 > 100 µM

Cc1nc(N)sc1/N=N/c1cc(Cl)c([N+](=O)[O-])cc1Cl
inactive: UACC-62 16.4 µM | COLO 205 31 µM | T47D 35.9 µM | MDA-MB-231 14.8 µM | OVCAR-8 14.6 µM | RXF 393 34.4 µM | MCF7 26.9 µM | MOLT-4 8.24 µM | SF-295 23.9 µM | TK-10 21.4 µM | KM12 18.1 µM | EKVX 13 µM | 786-0 19.7 µM | SF-539 17.3 µM | MDA-MB-435 19.4 µM | OVCAR-5 31.3 µM | HT-29 12.4 µM | IGROV-1 20.1 µM

CC1(CCCO)CCCCCC(C)(CCCO)C1=O (stereo not given)
inactive: HCC 2998 > 100 µM | UACC-62 > 100 µM | COLO 205 > 100 µM | T47D > 100 µM | MDA-MB-231 > 100 µM | OVCAR-8 > 100 µM | RXF 393 > 100 µM | MCF7 70.6 µM | MOLT-4 > 100 µM | SF-295 > 100 µM | KM12 > 100 µM | EKVX > 100 µM | 786-0 > 100 µM | MDA-MB-435 > 100 µM | OVCAR-5 > 100 µM | HT-29 > 100 µM | IGROV-1 > 100 µM

O/N=C1\CCc2nonc2\C1=N/Nc1ccccc1
inactive: HCC 2998 > 100 µM | UACC-62 > 100 µM | COLO 205 > 100 µM | T47D 57.3 µM | MDA-MB-231 > 100 µM | OVCAR-8 > 100 µM | RXF 393 > 100 µM | MOLT-4 > 100 µM | SF-295 > 100 µM | TK-10 > 100 µM | KM12 > 100 µM | EKVX 39.9 µM | 786-0 > 100 µM | SF-539 > 100 µM | MDA-MB-435 > 100 µM | OVCAR-5 > 100 µM | HT-29 > 100 µM | IGROV-1 > 100 µM
